In patent US20250282799A1, “SUBSTITUTED PYRIDO[4,3-d]PYRIMIDINES AS KRAS MODULATORS” (Alterome Therapeutics, Inc., priority 2023, published 2025):

These compounds were tested on KRAS G12V dependent lung adenocarcinoma cell line, NCI-H441 (assay: Cellular pERK (Thr202/Tyr204) FRET/HTRF assay). Details: Homo sapiens, NCI-H441, cellular pERK (Thr202/Tyr204) HTRF, NCI-H441 cells.
Format: cell-based
Summary of the method: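 NCI-H441, overnight plating → cpd 1 hr, 37 °C/5% CO2; DMSO neg ctrl. Lyse (phosphatase inhibitors), add donor/acceptor Abs, RT incubation, HTRF read. IC50 by curve fit.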
`[2H]C([2H])(Oc1nc(N2CCOC[C@H]3[C@H](F)[C@H]32)c2cnc(-c3cccc4ccc(C(F)(F)F)c(C#C)c34)c(F)c2n1)[C@@]12CCCN1C[C@H](F)C2` [Example 332, (1S,7S,8S)-2-(7-(8-ethynyl-7-(trifluoromethyl)naphthalen-1-yl)-8-fluoro-2-(((2R,7aS)-2-fluorotetrahydro-1H-pyrrolizin-7a(5H)-yl)methoxy-d2)pyrido[4,3-d]pyrimidin-4-yl)-8-fluoro-5-oxa-2-azabicyclo[5.1.0]octane] gave an IC50 of 50 to 500 nM.
Compound `C#Cc1c(F)ccc2cccc(-c3ncc4c(N5CCCC[C@H]6[C@H](F)[C@H]65)nc(OC[C@]56C/C(=C/F)CN5CCC65CC5)nc4c3F)c12` [Example 402, (R,Z)-7a′-(((7-(8-Ethynyl-7-fluoronaphthalen-1-yl)-8-fluoro-4-((1S,7R,8S)-8-fluoro-2-azabicyclo[5.1.0]octan-2-yl)pyrido[4,3-d]pyrimidin-2-yl)oxy)methyl)-6′-(fluoromethylene)hexahydrospiro[cyclopropane-1,1′-pyrrolizine]] has an IC50 of under 50 nM.
For `C#Cc1c(F)ccc2cc(N)cc(-c3ncc4c(N5CCCC[C@H]6[C@H](F)[C@H]65)nc(OC[C@]56C/C(=C\F)CN5CCC65CC5)nc4c3F)c12` [Example 403, 5-Ethynyl-6-fluoro-4-(8-fluoro-4-((1S,7R,8S)-8-fluoro-2-azabicyclo[5.1.0]octan-2-yl)-2-(((R,E)-6′-(fluoromethylene)tetrahydrospiro[cyclopropane-1,1′-pyrrolizin]-7a′(5′H)-yl)methoxy)pyrido[4,3-d]pyrimidin-7-yl)naphthalen-2-amine], the IC50 was under 50 nM.
`[2H]C([2H])(F)Oc1c(F)ccc2cc(N)cc(-c3ncc4c(N5CCOC[C@H]6[C@H](F)[C@H]65)nc(OC[C@@]56CCCN5C/C(=C\F)C6)nc4c3F)c12` [Example 188, 6-Fluoro-4-(8-fluoro-4-((1S,7S,8S)-8-fluoro-5-oxa-2-azabicyclo[5.1.0]octan-2-yl)-2-(((S,Z)-2-(fluoromethylene)tetrahydro-1H-pyrrolizin-7a(5H)-yl)methoxy)pyrido[4,3-d]pyrimidin-7-yl)-5-(fluoromethoxy-d2)naphthalen-2-amine] was tested, and the IC50 was under 50 nM.
Compound `[2H]C([2H])([2H])Oc1c(F)cc(F)c2cc(N)cc(-c3ncc4c(N5CCOC[C@H]6[C@H](F)[C@H]65)nc(OC([2H])([2H])[C@@]56CCCN5C[C@H](F)C6)nc4c3F)c12` [Example 131, 6,8-difluoro-4-(8-fluoro-4-((1S,7S,8S)-8-fluoro-5-oxa-2-azabicyclo[5.1.0]octan-2-yl)-2-(((2R,7aS)-2-fluorotetrahydro-1H-pyrrolizin-7a(5H)-yl)methoxy-d2)pyrido[4,3-d]pyrimidin-7-yl)-5-(methoxy-d3)naphthalen-2-amine] has an IC50 of under 50 nM.
Work on `[2H]C1([2H])CC[C@@]2(C([2H])([2H])Oc3nc(N4CCOC[C@H]5[C@H](F)[C@H]54)c4cnc(-c5cc(N)cc6ccc(F)c(C#C)c56)c(F)c4n3)C[C@@]3(C[C@@H]3F)CN12` (single isomer, unassigned) [Example 275] yielded an IC50 of under 50 nM.
`[2H]C([2H])(Oc1nc(N2CCOC[C@H]3[C@H](F)[C@H]32)c2cnc(-c3c(F)c(N)cc(C)c3C(F)(F)F)c(F)c2n1)[C@@]12CCCN1C[C@H](F)C2` [Example 271, 2-fluoro-3-(8-fluoro-4-((1S,7S,8S)-8-fluoro-5-oxa-2-azabicyclo[5.1.0]octan-2-yl)-2-(((2R,7aS)-2-fluorotetrahydro-1H-pyrrolizin-7a(5H)-yl)methoxy-d2)pyrido[4,3-d]pyrimidin-7-yl)-5-methyl-4-(trifluoromethyl)aniline] gave an IC50 of 50 to 500 nM.
In the case of `[2H]C([2H])(Oc1nc(N2CCOC[C@H]3[C@H](F)[C@H]32)c2cnc(-c3cc(N)cc4ccc(F)c(C#C)c34)c(C)c2n1)[C@@]12CCCN1C[C@H](F)C2` [Example 329, 5-Ethynyl-6-fluoro-4-(4-((1S,7S,8S)-8-fluoro-5-oxa-2-azabicyclo[5.1.0]octan-2-yl)-2-(((2R,7aS)-2-fluorotetrahydro-1H-pyrrolizin-7a(5H)-yl)methoxy-d2)-8-methylpyrido[4,3-d]pyrimidin-7-yl)naphthalen-2-amine], the IC50 is reported as under 50 nM.
In the case of `[2H]C([2H])(F)Oc1c(F)c(F)cc2cc(N)cc(-c3ncc4c(N5CCOC[C@H]6[C@H](F)[C@H]65)nc(OC[C@@]56CCCN5CC(=C)C6)nc4c3F)c12` [Example 144, 6,7-difluoro-4-(8-fluoro-4-((1S,7S,8S)-8-fluoro-5-oxa-2-azabicyclo[5.1.0]octan-2-yl)-2-(((S)-2-methylenetetrahydro-1H-pyrrolizin-7a(5H)-yl)methoxy)pyrido[4,3-d]pyrimidin-7-yl)-5-(fluoromethoxy-d2)naphthalen-2-amine], the IC50 is reported as under 50 nM.
`[2H]C([2H])([2H])Oc1c(F)c(F)c(F)c2cc(N)cc(-c3ncc4c(N5CCOC[C@H]6[C@H](F)[C@H]65)nc(OC[C@@]56CC(=C)CN5CCC65CC5)nc4c3F)c12` [Example 121, 6,7,8-trifluoro-4-(8-fluoro-4-((1S,7S,8S)-8-fluoro-5-oxa-2-azabicyclo[5.1.0]octan-2-yl)-2-(((S)-6′-methylenetetrahydrospiro[cyclopropane-1,1′-pyrrolizin]-7a′(5′H)-yl)methoxy)pyrido[4,3-d]pyrimidin-7-yl)-5-(methoxy-d3)naphthalen-2-amine] was tested, and the IC50 was under 50 nM.
`C#Cc1c(F)ccc2cc(N)cc(-c3ncc4c(N5CCOC[C@H]6[C@H](F)[C@H]65)nc(OC[C@]56C[C@H](C)CN5CCC65CC5)nc4c3F)c12` (single isomer, unassigned) [Example 251] was tested, and the IC50 was under 50 nM.

Same assay, conditions: Homo sapiens, NCI-H441, pERK HTRF, NCI-H441 cells (KRAS G12V)
`[2H]C([2H])(Oc1nc(N2CCCCC[C@H]3C[C@H]32)c2cnc(-c3cc(N)cc4cc(F)c(F)c(C#C)c34)c(F)c2n1)[C@@]12CCCN1C[C@H](F)C2` [Example 56, 4-(4-((1R,8S)-2-azabicyclo[6.1.0]nonan-2-yl)-8-fluoro-2-(((2R,7aS)-2-fluorotetrahydro-1H-pyrrolizin-7a(5H)-yl)methoxy-d2)pyrido[4,3-d]pyrimidin-7-yl)-5-ethynyl-6,7-difluoronaphthalen-2-amine] gave an IC50 of under 50 nM.
`[2H]C([2H])([2H])Oc1c(C#N)ccc2cc(N)cc(-c3ncc4c(N5CCCC[C@H]6[C@H](F)[C@H]65)nc(OC([2H])([2H])[C@@]56CCCN5C[C@H](F)C6)nc4c3F)c12` [Example 49, 6-Amino-8-(8-fluoro-4-((1S,7R,8S)-8-fluoro-2-azabicyclo[5.1.0]octan-2-yl)-2-(((2R,7aS)-2-fluorotetrahydro-1H-pyrrolizin-7a(5H)-yl)methoxy-d2)pyrido[4,3-d]pyrimidin-7-yl)-1-(methoxy-d3)-2-naphthonitrile] showed an IC50 of under 50 nM.
Compound `[2H]C([2H])(Oc1nc(N2CCO[C@@H]3[C@@H](F)[C@@H]32)c2cnc(-c3cc(N)cc4cc(F)c(F)c(C#C)c34)c(F)c2n1)[C@@]12CCCN1C[C@H](F)C2` [Example 37, 5-Ethynyl-6,7-difluoro-4-(8-fluoro-4-((1S,6R,7S)-7-fluoro-2-oxa-5-azabicyclo[4.1.0]heptan-5-yl)-2-(((2R,7aS)-2-fluorotetrahydro-1H-pyrrolizin-7a(5H)-yl)methoxy-d2)pyrido[4,3-d]pyrimidin-7-yl)naphthalen-2-amine] has an IC50 of 50 to 500 nM.
